The source of these data is publication PMC10296195, “C-Methylated Spermidine Derivatives: Convenient Syntheses and Antizyme-Related Effects” (Biomolecules, 2023).

Structures are written as SMILES. Read-outs that look alike come from different tables or passages of the source.

For the test, the target named is T1, mOAZ1 (Mus musculus, UniProt P54369).
T1 construct: gene Oaz1; full-length mouse antizyme 1 (+1 frameshift product); expressed in E. coli Rosetta (DE3) from pET-15b-2c-His-mAZ (XhoI site)
Kind of test: isothermal titration calorimetry. It is filed as binding. From the text: isothermal titration calorimetry on mOAZ1
Background: ITC needs no label: the signal is the heat of the interaction.

T1 sequence (P54369 2-227): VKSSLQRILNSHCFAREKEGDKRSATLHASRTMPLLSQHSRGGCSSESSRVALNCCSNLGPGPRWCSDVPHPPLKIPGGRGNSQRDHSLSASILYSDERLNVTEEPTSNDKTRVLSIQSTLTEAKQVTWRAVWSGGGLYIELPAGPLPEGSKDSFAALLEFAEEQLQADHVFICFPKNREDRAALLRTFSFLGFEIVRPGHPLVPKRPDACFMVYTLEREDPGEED

As for `NCCCNCCCCNCCCN` [Spm], the Kd (read-out: Ka ^b, M^-1 (converted)) is 370 nM and the Kd (read-out: Kd ^c) turned out to be 370 nM.
